Source: patent US8895504B2, “Amylin derivatives” (priority 2008, dated 2014)
*1 amine or outer side, *2 acyl side, *3 side chain or, on linkers, in order; H or OH if unused. Where a SMILES comes first, the peptide text is derived from it. Bridges are numbered along the chain shown (N, C = ends). Side-chain parts run from the residue outwards. The star is where a group is joined. C20 diacid = O=C(O)CCCCCCCCCCCCCCCCCCC(=O)*; C18 diacid = O=C(O)CCCCCCCCCCCCCCCCC(=O)*; γGlu = O=C(O)[C@H](CCC(=O)[*:2])N[*:1]

Biological target: T1, Amylin 3(a) receptor (human calcitonin receptor (CTa) and RAMP-3) (Homo sapiens, UniProt O60896+P30988)
T1 construct: expressed in transfected cells; host or cells: BHK570 cells, stably transfected with a CRE-luciferase reporter
Assay: Luciferase assay (III), BHK Amylin 3(a)//CRE-luc cells
Format: cell-based
Conditions: BHK cells with Amylin 3(a) receptor and CRE luciferase reporter, 4 hours incubation; read-out: Potency Luciferase
Method in brief: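 Read-out is CRE-driven luciferase luminescence, taken 30 min after LucLite addition at room temperature. Compounds were incubated 4 h at 37° C in assay medium (10% FBS, 10 mM Hepes, pH 7,4). The cell line is BHK570 co-transfected with human calcitonin receptor CTa and RAMP-3, seeded overnight before use.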

T1 sequence (O60896 24-148): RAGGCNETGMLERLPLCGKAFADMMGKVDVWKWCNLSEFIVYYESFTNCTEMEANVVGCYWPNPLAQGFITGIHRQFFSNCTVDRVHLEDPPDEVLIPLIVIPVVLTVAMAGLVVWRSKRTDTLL
T1 sequence (P30988 25-474): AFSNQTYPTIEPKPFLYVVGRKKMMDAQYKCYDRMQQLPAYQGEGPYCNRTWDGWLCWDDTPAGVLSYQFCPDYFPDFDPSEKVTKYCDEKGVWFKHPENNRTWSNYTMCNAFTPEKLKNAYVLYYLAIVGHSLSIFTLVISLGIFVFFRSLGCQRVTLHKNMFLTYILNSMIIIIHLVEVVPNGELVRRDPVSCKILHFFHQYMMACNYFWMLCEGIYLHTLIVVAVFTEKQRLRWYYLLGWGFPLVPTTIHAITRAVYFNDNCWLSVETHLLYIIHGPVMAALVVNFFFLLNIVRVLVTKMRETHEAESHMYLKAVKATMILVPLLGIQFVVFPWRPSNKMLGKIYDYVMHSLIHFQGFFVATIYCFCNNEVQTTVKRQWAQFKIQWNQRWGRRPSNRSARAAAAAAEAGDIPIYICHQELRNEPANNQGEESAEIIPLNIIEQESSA

Row | Structure (SMILES) | EC50
1 | CC[C@H](C)[C@H](NC(=O)[C@@H]1CCCN1C(=O)CNC(=O)[C@H](Cc1ccccc1)NC(=O)[C@H](CC(N)=O)NC(=O)[C@H](CCC(N)=O)NC(=O)[C@H](CO)NC(=O)[C@H](CO)NC(=O)[C@H](Cc1c[nH]cn1)NC(=O)[C@H](Cc1c[nH]cn1)NC(=O)[C@H](CC(C)C)NC(=O)[C@H](Cc1ccccc1)NC(=O)[C@H](CC(N)=O)NC(=O)[C@H](C)NC(=O)[C@H](CC(C)C)NC(=O)[C@H](CCCNC(=N)N)NC(=O)[C@H](CCC(N)=O)NC(=O)[C@@H](NC(=O)[C@H](C)NC(=O)[C@@H]1CSSC[C@H](NC(=O)[C@H](CCCNC(=N)N)NC(=O)[C@H](Cc2c[nH]cn2)NC(=O)[C@H](Cc2c[nH]cn2)NC(=O)[C@H](CCC(=O)O)NC(=O)CC[C@H](NC(=O)CCCCCCCCCCCCCCCCCCC(=O)O)C(=O)O)C(=O)N[C@@H](CC(N)=O)C(=O)N[C@@H]([C@@H](C)O)C(=O)N[C@@H](C)C(=O)N[C@@H]([C@@H](C)O)C(=O)N1)[C@@H](C)O)C(=O)N[C@@H](CC(C)C)C(=O)N1CCC[C@H]1C(=O)N1CCC[C@H]1C(=O)N[C@H](C(=O)N[C@@H](CC(N)=O)C(=O)N[C@H](C(=O)NCC(=O)N[C@@H](CO)C(=O)N[C@@H](CC(N)=O)C(=O)N[C@H](C(=O)N[C@@H](Cc1ccc(O)cc1)C(N)=O)[C@@H](C)O)C(C)C)[C@@H](C)O [Example 63, N-alpha-[(S)-4-Carboxy-4-(19-carboxynonadecanoylamino)butyryl]-GluHis-His-[Arg1,His17,Gln21]-pramlintide] ({C20 diacid-γGlu}-EHHRCNTATCATQRLANFLHHSSQNFGPILPPTNVGSNTY-NH2; disulfide 5-10) | 0.1 nM
2 | CC[C@H](C)[C@H](NC(=O)[C@@H]1CCCN1C(=O)CNC(=O)[C@H](Cc1ccccc1)NC(=O)[C@H](CC(N)=O)NC(=O)[C@H](CC(N)=O)NC(=O)[C@H](CO)NC(=O)[C@H](CO)NC(=O)[C@H](Cc1c[nH]cn1)NC(=O)[C@H](CCCNC(=N)N)NC(=O)[C@H](CC(C)C)NC(=O)[C@H](Cc1ccccc1)NC(=O)[C@H](CC(N)=O)NC(=O)[C@H](C)NC(=O)[C@H](CC(C)C)NC(=O)[C@H](CCCNC(=N)N)NC(=O)[C@H](CCC(N)=O)NC(=O)[C@@H](NC(=O)[C@H](C)NC(=O)[C@@H]1CSSC[C@H](NC(=O)[C@H](CCCCN)NC(=O)[C@H](CCCNC(=N)N)NC(=O)CC[C@H](NC(=O)CCCCCCCCCCCCCCCCC(=O)O)C(=O)O)C(=O)N[C@@H](CC(N)=O)C(=O)N[C@@H]([C@@H](C)O)C(=O)N[C@@H](C)C(=O)N[C@@H]([C@@H](C)O)C(=O)N1)[C@@H](C)O)C(=O)N[C@@H](CC(C)C)C(=O)N1CCC[C@H]1C(=O)N1CCC[C@H]1C(=O)N[C@H](C(=O)N[C@@H](CC(N)=O)C(=O)N[C@H](C(=O)NCC(=O)N[C@@H](CO)C(=O)N[C@@H](CC(N)=O)C(=O)N[C@H](C(=O)N[C@@H](Cc1ccc(O)cc1)C(N)=O)[C@@H](C)O)C(C)C)[C@@H](C)O [Example 26, N-alpha-[(S)-4-Carboxy-4-(17-carboxyheptadecanoylamino)butyryl]-Arg-[Arg17]-pramlintide] ({C18 diacid-γGlu}-RKCNTATCATQRLANFLRHSSNNFGPILPPTNVGSNTY-NH2; disulfide 3-8) | 0.05 nM

Second part, the compound after the results:

Row | EC50 | Structure (SMILES)
3 | 0.1 nM | CC[C@H](C)[C@H](NC(=O)[C@@H]1CCCN1C(=O)[C@H](CCC(=O)O)NC(=O)[C@H](Cc1ccccc1)NC(=O)[C@H](CC(N)=O)NC(=O)[C@H](CC(N)=O)NC(=O)[C@H](CO)NC(=O)[C@H](CO)NC(=O)[C@H](Cc1c[nH]cn1)NC(=O)[C@H](Cc1c[nH]cn1)NC(=O)[C@H](CC(C)C)NC(=O)[C@H](Cc1ccccc1)NC(=O)[C@H](CC(N)=O)NC(=O)[C@H](C)NC(=O)[C@H](CC(C)C)NC(=O)[C@H](CCCNC(=N)N)NC(=O)[C@H](CCC(N)=O)NC(=O)[C@@H](NC(=O)[C@H](C)NC(=O)[C@@H]1CSSC[C@H](NC(=O)CC[C@H](NC(=O)CCCCCCCCCCCCCCCCCCC(=O)O)C(=O)O)C(=O)N[C@@H](CC(N)=O)C(=O)N[C@@H]([C@@H](C)O)C(=O)N[C@@H](C)C(=O)N[C@@H]([C@@H](C)O)C(=O)N1)[C@@H](C)O)C(=O)N[C@@H](CC(C)C)C(=O)N1CCC[C@H]1C(=O)N1CCC[C@H]1C(=O)N[C@H](C(=O)N[C@@H](CC(N)=O)C(=O)N[C@H](C(=O)NCC(=O)N[C@@H](CO)C(=O)N[C@@H](CC(N)=O)C(=O)N[C@H](C(=O)N[C@@H](Cc1ccc(O)cc1)C(N)=O)[C@@H](C)O)C(C)C)[C@@H](C)O [Example 44, N-alpha-[(S)-4-Carboxy-4-(19-carboxynonadecanoylamino)butyryl]-[His17,Glu24]-pramlintide (2-37)] ({C20 diacid-γGlu}-CNTATCATQRLANFLHHSSNNFEPILPPTNVGSNTY-NH2; disulfide 1-6)
4 | 0.1 nM | CC[C@H](C)[C@H](NC(=O)[C@@H]1CCCN1C(=O)CNC(=O)[C@H](Cc1ccccc1)NC(=O)[C@H](CC(N)=O)NC(=O)[C@H](CC(N)=O)NC(=O)[C@H](CO)NC(=O)[C@H](CO)NC(=O)[C@H](Cc1c[nH]cn1)NC(=O)[C@H](Cc1c[nH]cn1)NC(=O)[C@H](CC(C)C)NC(=O)[C@H](Cc1ccccc1)NC(=O)[C@H](CC(N)=O)NC(=O)[C@H](C)NC(=O)[C@H](CC(C)C)NC(=O)[C@H](CCCNC(=N)N)NC(=O)[C@H](CCC(N)=O)NC(=O)[C@@H](NC(=O)[C@H](C)NC(=O)[C@@H]1CSSC[C@H](NC(=O)[C@H](Cc2c[nH]cn2)NC(=O)[C@H](CCCNC(=N)N)NC(=O)[C@H](Cc2c[nH]cn2)NC(=O)[C@H](CCC(=O)O)NC(=O)CC[C@H](NC(=O)CCCCCCCCCCCCCCCCCCC(=O)O)C(=O)O)C(=O)N[C@@H](CC(N)=O)C(=O)N[C@@H]([C@@H](C)O)C(=O)N[C@@H](C)C(=O)N[C@@H]([C@@H](C)O)C(=O)N1)[C@@H](C)O)C(=O)N[C@@H](CC(C)C)C(=O)N1CCC[C@H]1C(=O)N1CCC[C@H]1C(=O)N[C@H](C(=O)N[C@@H](CC(N)=O)C(=O)N[C@H](C(=O)NCC(=O)N[C@@H](CO)C(=O)N[C@@H](CC(N)=O)C(=O)N[C@H](C(=O)N[C@@H](Cc1ccc(O)cc1)C(N)=O)[C@@H](C)O)C(C)C)[C@@H](C)O [Example 66, N-alpha-[(S)-4-Carboxy-4-(19-carboxynonadecanoylamino)butyryl]-Glu-His-Arg-[His1,His17]-pramlintide] ({C20 diacid-γGlu}-EHRHCNTATCATQRLANFLHHSSNNFGPILPPTNVGSNTY-NH2; disulfide 5-10)
5 | 2 nM | CC[C@H](C)[C@H](NC(=O)[C@@H]1CCCN1C(=O)CNC(=O)[C@H](Cc1ccccc1)NC(=O)[C@H](CC(N)=O)NC(=O)[C@H](CC(N)=O)NC(=O)[C@H](CO)NC(=O)[C@H](CO)NC(=O)[C@H](Cc1c[nH]cn1)NC(=O)[C@@H]1CCCN1C(=O)[C@H](CC(C)C)NC(=O)[C@H](Cc1ccccc1)NC(=O)[C@H](CC(N)=O)NC(=O)[C@H](C)NC(=O)[C@H](CC(C)C)NC(=O)[C@H](CCCNC(=N)N)NC(=O)[C@H](CCC(N)=O)NC(=O)[C@@H](NC(=O)[C@H](C)NC(=O)[C@@H]1CSSC[C@H](NC(=O)[C@H](CCCCN)NC(=O)[C@H](CCCNC(=N)N)NC(=O)CC[C@H](NC(=O)CCCCCCCCCCCCCCCCCCC(=O)O)C(=O)O)C(=O)N[C@@H](CC(N)=O)C(=O)N[C@@H]([C@@H](C)O)C(=O)N[C@@H](C)C(=O)N[C@@H]([C@@H](C)O)C(=O)N1)[C@@H](C)O)C(=O)N[C@@H](CC(C)C)C(=O)N1CCC[C@H]1C(=O)N1CCC[C@H]1C(=O)N[C@H](C(=O)N[C@@H](CC(N)=O)C(=O)N[C@H](C(=O)NCC(=O)N[C@@H](CO)C(=O)N[C@@H](CC(N)=O)C(=O)N[C@H](C(=O)N[C@@H](Cc1ccc(O)cc1)C(N)=O)[C@@H](C)O)C(C)C)[C@@H](C)O [Example 21, N-alpha-[(S)-4-Carboxy-4-(19-carboxynonadecanoylamino)butyryl]-Arg-[Pro17]-pramlintide] ({C20 diacid-γGlu}-RKCNTATCATQRLANFLPHSSNNFGPILPPTNVGSNTY-NH2; disulfide 3-8)
6 | 0.9 nM | CC[C@H](C)[C@H](NC(=O)[C@@H]1CCCN1C(=O)CNC(=O)[C@H](Cc1ccccc1)NC(=O)[C@H](CC(N)=O)NC(=O)[C@H](CC(=O)O)NC(=O)[C@H](CO)NC(=O)[C@H](CO)NC(=O)[C@H](Cc1c[nH]cn1)NC(=O)[C@H](Cc1c[nH]cn1)NC(=O)[C@H](CC(C)C)NC(=O)[C@H](Cc1ccccc1)NC(=O)[C@H](CC(N)=O)NC(=O)[C@H](C)NC(=O)[C@H](CC(C)C)NC(=O)[C@H](CCCNC(=N)N)NC(=O)[C@H](CCC(N)=O)NC(=O)[C@@H](NC(=O)[C@H](C)NC(=O)[C@@H]1CSSC[C@H](NC(=O)[C@@H](N)CCCCN)C(=O)N[C@@H](CCCCNC(=O)[C@H](CCC(=O)O)NC(=O)[C@H](CCCNC(=N)N)NC(=O)[C@H](CCC(=O)O)NC(=O)[C@H](CCC(=O)O)NC(=O)CCCCCCCCCCCCCCCCCCC(=O)O)C(=O)N[C@@H]([C@@H](C)O)C(=O)N[C@@H](C)C(=O)N[C@@H]([C@@H](C)O)C(=O)N1)[C@@H](C)O)C(=O)N[C@@H](CC(C)C)C(=O)N1CCC[C@H]1C(=O)N1CCC[C@H]1C(=O)N[C@H](C(=O)N[C@@H](CC(N)=O)C(=O)N[C@H](C(=O)NCC(=O)N[C@@H](CO)C(=O)N[C@@H](CC(N)=O)C(=O)N[C@H](C(=O)N[C@@H](Cc1ccc(O)cc1)C(N)=O)[C@@H](C)O)C(C)C)[C@@H](C)O [Example 2, N-epsilon3-(19-carboxynonadecanoyl-Glu-Glu-Arg-Glu)-[Lys3,His17,Asp21]-pramlintide] (H-KCK([Glu-Arg-Glu-Glu-C20 diacid])TATCATQRLANFLHHSSDNFGPILPPTNVGSNTY-NH2; disulfide 2-7)
